Patent US20220312767A1, “PYRIDAZINE COMPOUNDS AND HERBICIDES” (Nippon Soda Co., Ltd., priority 2019, published 2022)

Legend:
[1] = system: Digitaria ciliaris; experiment: Soil treatment test (Test Example 2); type: in vivo; conditions: four weeks after
Description: (§1) A test emulsion was prepared by the same method as that in Test example 1.
(§2) 70 cm^2 pots were filled with soil, and then seeds of Digitaria ciliaris and Amaranthus retroflexus were sown on the surface layer of each of the pots, respectively, followed by lightly covering with soil. On the next day, the above-mentioned test emulsion was diluted to obtain a predetermined active ingredient amount, and then was sprayed onto the soil surface at a spray volume of 2860 L per hectare using a small sprayer.
(§3) Four weeks after, the fresh grass mass at an aerial part on an untreated area or a treated area was measured per weed, and the herbicidal ratio was calculated by the following calculation formula.
(§4) Herbicidal ratio (%)=(the fresh grass mass at an aerial part on untreated area−the fresh grass mass at an aerial part on treated area)/(the fresh grass mass at an aerial part on untreated area)×100
(§5) The compounds A-1 and A-4 were sprayed at a spray amount of 63 g or 31 g per hectare, respectively.
(§6) In addition, the following compounds (A) to (C) disclosed in Patent Document 1 were sprayed in a similar manner.

[2] = system: Amaranthus retroflexus; experiment: Soil treatment test (Test Example 2); type: in vivo; conditions: four weeks after
Description: as §1, §2, §3, §4, §5, §6

[3] = system: Avena sativa; experiment: Foliage treatment test (Test Example 1), foliage spray; type: in vivo; conditions: 250 g per hectare, three weeks after, fresh grass mass of aerial part vs untreated
Description: (§7) POA allylphenyl ether (4.1 parts by mass), POE-POP glycol (1 part by mass), POE sorbitanlaurate (0.8 parts by mass), glycerin (2.6 parts by mass), dimethylformamide (65.9 parts by mass), N-methylpyrolidone (5.1 parts by mass), cyclohexanone (15.4 parts by mass), and aromatic hydrocarbon (5.1 parts by mass) were mixed and dissolved to prepare an emulsion. The compound according to the present invention (4 mg) was dissolved in the emulsion (100 μL) to prepare a test emulsion. The term “POA” means “polyoxyalkylene”, the term “POE” means “polyoxyethylene”, and the term “POP” means “polyoxypropylene”.
(§8) 150 cm^2 pots were filled with soil, and then seeds of Avena sativa, Matricaria chamomilla, Setaria faberi, Digitaria ciliaris, Abutilon theophrasti and Amaranthus retroflexus were sown on the surface layer of each of the pots, respectively, followed by lightly covering with soil. Then, the seeds were grown in a greenhouse. When each plant was grown to obtain a grass height of 2 cm to 4 cm, the above-mentioned test emulsion diluted to obtain a predetermined active ingredient amount was sprayed onto the leaves and stems at a spray volume of 250 L per hectare using a small sprayer.
(§9) Three weeks after, the fresh grass mass at an aerial part on an untreated area or a treated area was measured per weed, and the herbicidal ratio was calculated by the following calculation formula.
as §4

[4] = system: Matricaria chamomilla; experiment: as above; type: in vivo; conditions: 250 g per hectare, three weeks after, fresh grass mass of aerial part vs untreated
Description: as §7, §8, §9, §4

[5] = system: Digitaria ciliaris; experiment: as above; type: in vivo; conditions: 250 g per hectare, three weeks after, fresh grass mass of aerial part vs untreated
Description: as §7, §8, §9, §4

[6] = system: Amaranthus retroflexus; experiment: as above; type: in vivo; conditions: 250 g per hectare, three weeks after, fresh grass mass of aerial part vs untreated
Description: as §7, §8, §9, §4

[7] = system: Setaria faberi; experiment: as above; type: in vivo; conditions: 250 g per hectare, three weeks after, fresh grass mass of aerial part vs untreated
Description: as §7, §8, §9, §4

Structure (SMILES)	Herbicidal ratio Digitaria ciliaris ([1]; spray amount 31 g/ha) [%]	Herbicidal ratio Digitaria ciliaris ([1]; spray amount 63 g/ha) [%]	Herbicidal ratio Amaranthus retroflexus ([2]; spray amount 31 g/ha) [%]	Herbicidal ratio Amaranthus retroflexus ([2]; spray amount 63 g/ha) [%]	Herbicidal ratio against Avena sativa [3] [%]	Herbicidal ratio against Matricaria chamomilla [4] [%]	Herbicidal ratio against Digitaria ciliaris [5] [%]	Herbicidal ratio against Amaranthus retroflexus [6] [%]	Herbicidal ratio against Setaria faberi [7] [%]	melting point [°C]
Cn1ncc(-c2ccc(C(F)(F)F)cc2S(C)(=O)=O)c(O)c1=O [(A)]	0	0	0	0						
CC(=O)Oc1c(-c2ccc(C(F)(F)F)cc2S(C)(=O)=O)cnn(C)c1=O [(B)]	0	30	0	0						
Cc1ccc(S(=O)(=O)Oc2c(-c3ccc(C(F)(F)F)cc3S(C)(=O)=O)cnn(C)c2=O)cc1 [(C)]	40	70	0	0						
CC(OC(=O)C(C)C)Oc1c(-c2ccc(C(F)(F)F)cc2S(C)(=O)=O)cnn(C)c1=O (stereo not shown) [Compound A-1]	100	100	100	100	100	100	100	100	100	
COC(=O)OC(C)Oc1c(-c2ccc(S(C)(=O)=O)cc2Cl)cnn(C)c1=O (stereo not shown) [Compound A-2]					100	100				
COC(=O)OCOc1c(-c2ccc(C(F)(F)F)cc2S(C)(=O)=O)cnn(C)c1=O [Compound A-3]					100	100	100	100	100	
COC(=O)OC(C)Oc1c(-c2ccc(C(F)(F)F)cc2S(C)(=O)=O)cnn(C)c1=O (stereo not shown) [Compound A-4, methyl (1-((2-methyl-5-(2-(methylsulfonyl)-4-(trifluoromethyl)phenyl)-3-oxo-2,3-dihydropyridazin-4-yl)oxy)ethyl) carbonate]		100		100	100	100	100	100		173 to 176
CC(C)C(=O)OCOc1c(-c2ccc(C(F)(F)F)cc2S(C)(=O)=O)cnn(C)c1=O [Compound A-5]					100	100	100	100	100	
COC(=O)OC(C)Oc1c(-c2ccc(S(C)(=O)=O)c(C3=NOCC3)c2Cl)cnn(C)c1=O (stereo not shown) [Compound A-7]					100	100	100	100	100	
COCCOc1c(S(C)(=O)=O)ccc(-c2cnn(C)c(=O)c2OC(C)OC(=O)OC)c1Cl (stereo not shown) [Compound A-8]						100	100	100		
COC(=O)OC(C)Oc1c(-c2ccc(C(F)(F)F)c(NC(=O)C3CC3)c2C)cnn(C)c1=O (stereo not shown) [Compound A-9]					100	100		100	100	
